Key:
[1] = test system: γ-secretase cleavage of rat EphA4 with HA tag in HEK293 cells; experiment: EphA4 processing in EphA4-HA transfected 293/EBNA-1 cells, Western blot with anti-HA antibody; format: cell-based; settings: Compound E 50 nM, one day, EphA4-HA transfected 293/EBNA-1 (HEK293) cells
Protocol: Whether or not EphA4 is a substrate for γ-secretase was evaluated using HEK293 cells expressing EphA4 with an HA tag added to its C-terminus, in the presence of a γ-secretase inhibitor. As the γ-secretase inhibitor, (2S)-2-{[(3,5-difluorophenyl)acetyl]amino}-N-[(3S)-1-methyl-2-oxo-5-phenyl-2,3-dihydro-1H-1,4-benzodiazepin-3-yl]propanamide (hereinafter, sometimes referred to as “Compound E”) (Alexis Biochemicals) was used.
293/EBNA-1 cell strain (Invitrogen) was cultured in 10% FBS (Hyclone)/DMEM (Invitrogen) under 5% CO2 at 37° C., followed by transfection thereinto of a gene encoding rat EphA4 with an HA tag added to its C-terminus with Lipofectamine 2000 (Invitrogen). After one day culture under the same conditions, Compound E (γ-secretase inhibitor, Alexis Biochemicals) was added to the medium (final concentration: 50 nM). Cells were cultured for another day under the same conditions. Then, the transfected HEK293 cells were collected with PBS (Sigma) and sonicated with a sonicator (Taitec VP-5S) to disrupt cells. Then, the quantity of protein was determined with Protein Assay Kit (BioRad). Samples (2 μg each) were taken from proteins obtained from Compound E-added cells and Compound E-not added cells, respectively, and subjected to SDS-PAGE, followed by Western blotting with an anti-HA antibody (Roche) (final concentration: 0.2 μg/ml). […]

[2] = test system: γ-secretase cleavage of EphA4 in rat hippocampal neurons; experiment: EphA4 processing in primary culture of rat hippocampal neurons, Western blot with anti-EphA4 antibody; format: cell-based; settings: Compound E 50 nM, one week
Protocol: Whether or not EphA4 is a substrate for γ-secretase was evaluated using a primary culture of rat hippocampal neurons in the presence of a γ-secretase inhibitor. As the γ-secretase inhibitor, (2S)-2-{[(3,5-difluorophenyl)acetyl]amino}-N-[(3S)-1-methyl-2-oxo-5-phenyl-2,3-dihydro-1H-1,4-benzodiazepin-3-yl]propanamide (Compound E) (Alexis Biochemicals) was used.
The hippocampus was isolated from embryonic day 18 SD rats (Charles River) and subjected to culture. Specifically, embryos were removed aseptically from pregnant rats under etherization. The brain was removed from each embryo and dipped in 20% FBS (Hyclone)/HBSS (Sigma). The hippocampus was collected from the thus obtained brain under a stereomicroscope. The collected hippocampus was treated in an enzyme solution containing 0.25% trypsin (Invitrogen) and 0.5 mg/ml DNase (Sigma) at 37° C. for 10 minutes to disperse cells. This enzyme reaction was terminated by adding 20% FBS (Hyclone)/HBSS (Sigma). Then, 2 ml of HBSS (Sigma) was added to the resultant cells. The HBSS-added cell mass was re-dispersed by gentle pipetting. The resultant neuron suspension was diluted with a medium and plated in 10 cm dishes at an initial cell density of 1.5×10^6 cells/dish. […] Then, cells were collected with PBS and subjected to quantitative determination of protein. […]

C[C@H](NC(=O)Cc1cc(F)cc(F)c1)C(=O)N[C@H]1N=C(c2ccccc2)c2ccccc2N(C)C1=O [Compound E, (2S)-2-{[(3,5-difluorophenyl)acetyl]amino}-N-[(3S)-1-methyl-2-oxo-5-phenyl-2,3-dihydro-1H-1,4-benzodiazepin-3-yl]propanamide]
accumulation of EphA4 CTF band around 50 kDa (EphA4 undegraded product) [1]: a band around 50 kDa (CTF) was accumulated specifically
accumulation of EphA4 CTF band around 50 kDa [2]: a band around 50 kDa (CTF) was accumulated specifically
